Measurements: patent publication US20240216352A1 (priority 2022, published 2024)
“And” between values parts separate entries of the source, which are not always exact repeats. Equal entries are not always repeated.

Tests used:
participants with IPF [1] = experiment: Phase 2 study, IPF cohort: efficacy (ppFVC, FVC); assay type: in vivo, human; conditions: for Efficacy versus PBO (ppFVC, FVC): Week 26, overall population with and without SoC; for Relative reduction in rate of decline in ppFVC vs PBO: Week 26, overall; for Slope difference in rate of decline in FVC, 60 mg - PBO: adjusted for age, gender, height
Method: (§1) A total of 278 participants with IPF were randomized and 276 participants were treated as of the final analyses data cut-off (4 Aug. 2022). Male and female participants […] with IPF and percent predicted forced vital capacity (ppFVC) […] and percent predicted DLCO (ppDLCO)≥25%; diagnosed within 7 years of screening; having a centrally-read chest HRCT obtained at screening that was consistent with UIP or probable UIP, or having a lung biopsy consistent with UIP, were eligible to enter the study. The mean baseline ppFVC for all subjects was 76.5%. In the primary IPF cohort, participants were randomized (1:1:1) to receive 30 mg or 60 mg Compound A or placebo (PBO) twice daily for 26 weeks. Participants were stratified by standard of care (SoC) IPF therapy (pirfenidone versus nintedanib versus none) and region (Japan versus Rest of World) at randomization.
The primary objective of the study was to determine the rate of change in ppFVC from baseline to Week 26. The primary objective was evaluated with a two estimand framework to handle the intercurrent event of dose reduction to 10 mg BID or matching PBO when pre-specified low BP criteria is met. The primary estimand is adopted to estimate treatment effect when dose reduction is implemented. The supplementary estimand is adopted to estimate the effect of treatment without dose reduction.
Analysis Strategy: The primary estimand was to evaluate the efficacy of Compound A at 30 mg or 60 mg twice daily, compared to PBO in IPF participants who met the enrollment criteria, with or without use of SoC. The rate of decline in ppFVC (%) from baseline to Week 26 was compared using the difference between each dose and PBO as a population level summary regardless of dose reduction or treatment discontinuation for any reason (treatment policy strategy).
Analysis Strategy: The supplementary estimand for the primary objective is to evaluate the efficacy of Compound A at 30 mg or 60 mg twice daily without dose reduction, compared to the PBO in IPF subjects who met the enrollment criteria, with or without use of SoC. The rate of decline in ppFVC (%) from baseline to Week 26 has been compared using the difference between each dose and PBO as a population level summary regardless of treatment discontinuation for any reason (treatment policy strategy). In the event of dose reduction, data collected after dose reduction will not be considered relevant to the treatment effect of interest and therefore, will be treated as missing (while-on-treatment strategy).

participants with IPF [2] = experiment: Phase 2 study, IPF cohort: safety and blood pressure monitoring; assay type: in vivo, human; conditions: for Nadir post-dose mean reduction from baseline in sitting SBP: Day 1, 2 hours post-dose
Method: as §1
Patient experiences any of the following, confirmed by retest within 15 minutes: • Seated systolic blood pressure <85 mmHg • Seated diastolic blood pressure <55 mmHg • Orthostatic hypotension
Patient experiences symptoms that, in the investigator's opinion, could be associated with a reduction in blood pressure and also experiences at least one of the following, confirmed by retest within 15 minutes: • Seated systolic blood pressure <100 mmHg or seated diastolic blood pressure <60 mmHg • Decrease of seated systolic blood pressure of ≥20 mmHg from the previous visit or decrease of seated diastolic blood pressure of ≥10 mmHg from the previous visit • Orthostatic hypotension • Orthostatic tachycardia

[3] = 60 mg BID, baseline to Week 26, No SoC, supplementary estimand
[4] = 60 mg BID, baseline to Week 26, overall, primary estimand
[5] = 60 mg BID, baseline to Week 26, overall, supplementary estimand
[6] = Active Total (30 mg and 60 mg groups)

## CCCN(C)C(=O)OCc1c(-c2ccc(O[C@H]3CCC[C@H](C(=O)O)C3)c(C)n2)nnn1C [Compound A, (1S,3S)-3-((2-methyl-6-(1-methyl-5-(((methyl(propyl)carbamoyl)-oxy)methyl)-1H-1,2,3-triazol-4-yl)pyridin-3-yl)oxy)cyclohexane-1-carboxylic acid]
Participants with IPF [1]; 30 mg BID
  Acute exacerbations of lung fibrosis, patients: 3 n
  Efficacy versus PBO (ppFVC, FVC): did not demonstrate efficacy compared to PBO
Participants with IPF [1]; 30 mg BID, treatment policy strategy
  Rate of change in ppFVC over 26 weeks: −2.8%
Participants with IPF [1]; 30 mg BID, while-on-treatment strategy
  Rate of change in ppFVC over 26 weeks: −3.2%
Participants with IPF [1]; 60 mg BID
  Acute exacerbations of lung fibrosis, patients: 1 n
  Efficacy versus PBO (ppFVC, FVC): demonstrated favorable treatment responses versus PBO
Participants with IPF [1]; 60 mg BID, Week 26, No SoC, primary estimand
  Relative treatment benefit in ppFVC decline vs PBO: 113%
Participants with IPF [1]; 60 mg BID, Week 26, No SoC, supplementary estimand
  Relative treatment benefit in ppFVC decline vs PBO: 123%
Participants with IPF [1]; 60 mg BID, Week 26, on background SoC, primary estimand
  Relative treatment benefit in ppFVC decline vs PBO: 39%
Participants with IPF [1]; 60 mg BID, Week 26, on background SoC, supplementary estimand
  Relative treatment benefit in ppFVC decline vs PBO: 44%
Participants with IPF [1]; 60 mg BID, primary estimand (treatment policy)
  Relative reduction in rate of decline in ppFVC vs PBO: 54%
Participants with IPF [1]; 60 mg BID, supplementary estimand (while-on-treatment)
  Relative reduction in rate of decline in ppFVC vs PBO: 62%
Participants with IPF [1]; 60 mg BID, baseline to Week 26, No SoC, primary estimand
  Slope difference in rate of decline in ppFVC, 60 mg - PBO: 2.01±1.7% and 2.01%
Participants with IPF [1]; [3]
  Estimated rate of decline in ppFVC, slope: 0.471
  Slope difference in rate of decline in ppFVC, 60 mg - PBO: 2.55±1.73% and 2.55%
Participants with IPF [1]; 60 mg BID, baseline to Week 26, SoC, supplementary estimand
  Estimated rate of decline in ppFVC, slope: −1.772
Participants with IPF [1]; 60 mg BID, baseline to Week 26, on background SoC, primary estimand
  Slope difference in rate of decline in ppFVC, 60 mg - PBO: 1.22±0.87% and 1.22%
Participants with IPF [1]; 60 mg BID, baseline to Week 26, on background SoC, supplementary estimand
  Slope difference in rate of decline in ppFVC, 60 mg - PBO: 1.41±0.89% and 1.41%
Participants with IPF [1]; [4]
  Slope of decline in FVC, 60 mg arm: -54.3 ± 20.76 mL
  Slope difference in rate of decline in FVC, 60 mg - PBO: 46.9 ± 29.14 mL and 46.9 mL
Participants with IPF [1]; 60 mg BID, baseline to Week 26, overall, primary estimand (treatment policy)
  Slope difference in rate of decline in ppFVC, 60 mg - PBO: 1.45±0.81% and 1.4% and 1.45%
Participants with IPF [1]; [5]
  Estimated rate of decline in ppFVC, slope: −1.1% and −1.08%
  Slope of decline in FVC, 60 mg arm: -47.2 ± 20.92 mL
  Slope difference in rate of decline in FVC, 60 mg - PBO: 61.4 mL
Participants with IPF [1]; 60 mg BID, baseline to Week 26, overall, supplementary estimand (while-on-treatment)
  Slope difference in rate of decline in ppFVC, 60 mg - PBO: 1.77±0.82% and 1.8% and 1.77%
Participants with IPF [1]; 60 mg BID, under both estimand strategies
  Posterior probability of a positive treatment difference vs placebo (Bayesian analysis): > 95%
Participants with IPF [1]; 60 mg BID, week 26
  Adjusted mean treatment difference in absolute change in FVC vs placebo: 45.5 mL
Participants with IPF [2]; 30 mg BID
  Dose reductions to 10 mg BID due to protocol-defined low BP criteria: 7 (7.7%) n (%) and 7 (7.7) n (%)
  Treatment discontinuations due to TEAEs: 9.9%
Participants with IPF [2]; 30 mg BID (N = 91)
  Asymptomatic low blood pressure: 22 (24.2%) n (%) and 22 (24.2) n (%)
  Orthostatic hypotension observed in asymptomatic low BP: 21 (23.1%) n (%) and 21 (23.1) n (%)
  Orthostatic hypotension observed in symptomatic low BP: 9 (9.9%) n (%) and 9 (9.9) n (%)
  Orthostatic intolerance: 10 (11.0%) n (%) and 10 (11.0) n (%)
  Subjects discontinuing study treatment due to a TEAE: 9 (9.9%) n (%) and 9 (9.9) n (%)
  Subjects who died: 4 (4.4%) n (%) and 4 (4.4) n (%)
  Subjects who died due to a TEAE: 3 (3.3%) n (%) and 3 (3.3) n (%)
  Subjects with at least one AESI: 18 (19.8%) n (%) and 18 (19.0) n (%)
  Subjects with at least one TEAE: 69 (75.8%) n (%) and 69 (75.8) n (%)
  Subjects with at least one TEAE related to the study treatment: 23 (25.3%) n (%) and 23 (25.3) n (%)
  Subjects with at least one TESAE: 10 (11.0%) n (%) and 10 (11.0) n (%)
  Symptomatic low blood pressure: 11 (12.1%) n (%) and 11 (12.1) n (%)
Participants with IPF [2]; 30 mg
  Nadir post-dose mean reduction from baseline in sitting SBP: −10.5 mmHg
Participants with IPF [2]; 60 mg BID
  Dose reductions to 10 mg BID due to protocol-defined low BP criteria: 6 (6.5%) n (%) and 6 (6.5) n (%)
  Treatment discontinuations due to TEAEs: 6.5%
Participants with IPF [2]; 60 mg BID (N = 93)
  Asymptomatic low blood pressure: 17 (18.3%) n (%) and 17 (18.3) n (%)
  Orthostatic hypotension observed in asymptomatic low BP: 14 (15.1%) n (%) and 14 (15.1) n (%)
  Orthostatic hypotension observed in symptomatic low BP: 5 (5.4%) n (%) and 5 (5.4) n (%)
  Orthostatic intolerance: 2 (2.2%) n (%) and 2 (2.2) n (%)
  Subjects discontinuing study treatment due to a TEAE: 6 (6.5%) n (%) and 6 (6.5) n (%)
  Subjects who died: 5 (5.4%) n (%) and 5 (5.4) n (%)
  Subjects who died due to a TEAE: 4 (4.3%) n (%) and 4 (4.3) n (%)
  Subjects with at least one AESI: 9 (9.7%) n (%) and 9 (9.7) n (%)
  Subjects with at least one TEAE: 69 (74.2%) n (%) and 69 (74.2) n (%)
  Subjects with at least one TEAE related to the study treatment: 25 (26.9%) n (%) and 25 (26.9) n (%)
  Subjects with at least one TESAE: 10 (10.8%) n (%) and 10 (10.8) n (%)
  Symptomatic low blood pressure: 6 (6.5%) n (%) and 6 (6.5) n (%)
Participants with IPF [2]; 60 mg twice daily (BID)
  Risk of orthostatic and low BP events compared to PBO: not associated with any increased risk of orthostatic intolerance, orthostatic hypotension, orthostatic tachycardia, or symptomatic or asymptomatic low BP
Participants with IPF [2]; 60 mg
  Nadir post-dose mean reduction from baseline in sitting SBP: −14.1 mmHg
Participants with IPF [2]; [6]
  Subjects discontinuing study treatment due to a TEAE: 15 (8.2) n (%)
  Subjects who died: 9 (4.9) n (%)
  Subjects who died due to a TEAE: 7 (3.8) n (%)
  Subjects with at least one AESI: 27 (14.7) n (%)
  Subjects with at least one TEAE: 138 (75.0) n (%)
  Subjects with at least one TEAE related to the study treatment: 48 (26.1) n (%)
  Subjects with at least one TESAE: 20 (10.9) n (%)
